Measured values: PubChem BioAssay (NCI)
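Tested at 5 concentrations; 48 h exposure; 96-well plates; endpoints linearly interpolated, else capped at highest concentration. GI50 = concentration required for 50% inhibition of growth. TGI marks complete inhibition of growth.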

Experiments:
Test in all cases: DTP human tumour cell line panel, 48 h
[1] = test system: MOLT-4 leukemia
[2] = test system: 786-0 renal
[3] = test system: SF-539 CNS
[4] = test system: CAKI-1 renal
[5] = test system: OVCAR-3 ovarian
[6] = test system: MALME-3M melanoma
[7] = test system: SR leukemia
[8] = test system: NCI-H226 lung

Row | SMILES | GI50 [1] | TGI [1] | GI50 [2] | TGI [2] | GI50 [3] | TGI [3] | GI50 [4] | TGI [4] | GI50 [5] | TGI [5] | GI50 [6] | TGI [6] | GI50 [7] | TGI [7] | GI50 [8] | TGI [8]
1 | CCCCCC[C@H](C)Nc1nc2ccccc2c2occc12 | 3470 nM | 16.2 µM | 9.87 µM | 21.7 µM | 4160 nM | 15.2 µM | 10600 nM | 26.3 µM | 6.27 µM | 24.3 µM | – | – | – | – | – | –
2 | Cc1nc2c(n1C)C(=O)c1ccccc1C2=O | 85000 nM | > 100 µM | > 100 µM | > 100 µM | 85500 nM | > 100 µM | 29400 nM | > 100 µM | 25.2 µM | 68.6 µM | 4740 nM | 28.5 µM | 48900 nM | > 100 µM | > 100 µM | > 100 µM
3 | O=C(NCCc1ccccn1)OCc1nc2nc(Cl)nc(N3CCOCC3)c2[nH]1 | 3000 nM | 9.5 µM | 1.75 µM | 3.52 µM | 1500 nM | 2.85 µM | 1360 nM | 3.04 µM | 1.26 µM | 2.73 µM | 1620 nM | 3.1 µM | 1970 nM | > 100 µM | 1.61 µM | 3.29 µM
4 | O=c1/c(=C\c2ccc(F)cc2)sc2n1C(c1ccc(F)cc1)C1=C(N=2)c2ccc3ccccc3c2OCC1 (stereo not drawn) | > 100000 nM | > 100 µM | > 100 µM | > 100 µM | > 100000 nM | > 100 µM | – | > 66.9 µM | > 100 µM | > 100 µM | > 100000 nM | > 100 µM | – | – | > 100 µM | > 100 µM
5 | O=c1[nH]c2ccccc2n1CCCN1CCC(n2c(=O)[nH]c3cc(Cl)ccc32)CC1 | – | 45.1 µM | – | 30 µM | – | – | – | 50.6 µM | – | 38.9 µM | – | 32 µM | – | – | – | 45 µM
6 | COC(=O)C1=C(C(=O)OC)C2(C)C=CC1O2 (stereo not drawn) | – | – | – | 14.4 µM | – | 33 µM | – | – | – | 2.86 µM | – | 9.26 µM | – | – | – | 39.9 µM
7 | Cc1c(-c2ccnc(N)n2)c2c(n1Cc1ccccc1)C(=O)c1ccccc1C2=O | – | – | 5.02 µM | 71 µM | – | – | 4660 nM | 52.9 µM | 2.83 µM | 21.3 µM | – | – | 1840 nM | 4.52 µM | – | –
8 | COc1cc(NC(=O)CCSc2nc3ccc(C)cc3c(=O)n2Cc2ccccc2)cc(OC)c1OC | > 100000 nM | > 100 µM | 4.17 µM | 19.2 µM | 2500 nM | 7.26 µM | > 100000 nM | > 100 µM | 5.05 µM | > 100 µM | 4730 nM | 43.4 µM | > 100000 nM | > 100 µM | 2.66 µM | 12.3 µM
9 | c1ccc2c(-c3nc(-c4c[nH]c5ccncc45)cs3)c[nH]c2c1 | – | – | 1.89 µM | 3.44 µM | 1790 nM | 3.29 µM | 1980 nM | 5.74 µM | 1.98 µM | 3.98 µM | 1650 nM | 3.13 µM | – | – | 3.24 µM | 17.7 µM
10 | Cc1ccc(N=Nc2c(O)ccc3ccccc23)cc1 | – | > 100 µM | – | > 100 µM | – | – | – | > 100 µM | – | > 100 µM | – | > 100 µM | – | > 100 µM | – | > 100 µM
11 | COc1cc2c(cc1OCCCCCCN1CCN(CC(=O)Nc3ccc(Cl)cc3C(=O)c3ccccc3Cl)CC1)N=CC1CCCN1C2=O (stereo not drawn) | 167 nM | 0.426 µM | 0.339 µM | 0.823 µM | 289 nM | 0.74 µM | 151 nM | 0.421 µM | 0.189 µM | 0.396 µM | 185 nM | 0.361 µM | 44.7 nM | 0.194 µM | 0.575 µM | 1.45 µM
12 | O=C1CCC(N2C(=O)c3ccccc3C2=O)C(=O)N1 (stereo not drawn) | – | > 100 µM | – | > 100 µM | > 100000 nM | > 100 µM | – | > 100 µM | > 100 µM | > 100 µM | – | > 100 µM | – | > 100 µM | > 100 µM | > 100 µM
13 | COC(=O)C1C(O)C(C)C(O)C(C)C=C(C)C2=C3C(=C(C)C(=O)c4c(O)c(c(C)c(OC(C)=O)c43)NC(=O)C(C)=C/C=C\C(C)C(O)C(C)C1O)OCO2 (stereo not drawn) | – | 51.4 µM | – | > 100 µM | – | > 100 µM | – | – | – | 53 µM | – | 38.5 µM | – | 47.6 µM | – | > 100 µM
14 | S=c1nc(N/N=C/c2ccco2)c2cn[nH]c2[nH]1 | – | – | > 100 µM | > 100 µM | 43300 nM | > 100 µM | 52900 nM | > 100 µM | 32.3 µM | > 100 µM | > 100000 nM | > 100 µM | – | – | > 100 µM | > 100 µM
15 | NCCOCCOCCNc1nc(-c2ccc(Cl)cc2)nc(N2CCN(c3ccccn3)CC2)n1 | 1990 nM | 3.85 µM | 1.83 µM | 3.61 µM | 2410 nM | 5.18 µM | 2010 nM | 5.24 µM | 2.74 µM | 6.76 µM | 2180 nM | 4.18 µM | – | – | 13.7 µM | 39.9 µM
16 | C1CC2CN(CCCN3CCOCC3)C(C1)O2 (stereo not drawn) | – | > 100 µM | – | > 100 µM | – | > 100 µM | – | > 100 µM | – | > 100 µM | – | > 100 µM | – | – | – | > 100 µM
17 | c1ccc2c(c1)SCCCSCCSCCCS2 | – | > 100 µM | – | > 100 µM | – | > 100 µM | – | – | – | > 100 µM | – | – | – | > 100 µM | – | –
18 | O=C(Nc1ccc(-c2nc(-c3cccc(OCCN4CCOCC4)c3)c(-c3ccnc(Br)c3)[nH]2)cc1)c1ccccc1 | 784 nM | > 100 µM | 0.741 µM | 2.39 µM | 1230 nM | 3.71 µM | 1840 nM | 5.27 µM | 4.27 µM | > 100 µM | 1550 nM | 3.85 µM | – | – | 2.94 µM | > 100 µM
19 | c1ccc(-c2nc(N3CCOCC3)c3c4c(sc3n2)CCCCCC4)nc1 | 3770 nM | 17 µM | 11.7 µM | 32.8 µM | 13000 nM | 26.7 µM | 2290 nM | 16.1 µM | 4.6 µM | 16.2 µM | 3320 nM | 14.9 µM | – | – | 5 µM | 24 µM
20 | COc1ccc(C(=O)NNc2nc(Cl)nc(N3CCN(C(c4ccccc4)c4ccccc4)CC3)n2)cc1 | 1640 nM | 5.15 µM | 3.37 µM | 12.9 µM | 1730 nM | 3.21 µM | 1840 nM | 3.48 µM | 1.89 µM | 3.45 µM | 1840 nM | 3.64 µM | – | – | 18.9 µM | 45.1 µM
